Calls of active or inactive are those of the source. How the calls were made is not given here.
Tested on: rodent lifetime carcinogenesis bioassay, tumor incidence TD50
Experiment: carcinogenic potency in animals, long-term in vivo studies, CPDB compilation (AID 1745844)

SMILES: CCOCCc1c(-c2ccccc2)nc(N)n2ncnc12
- TD50 (rat, strain Charles River CD (Sprague-Dawley), females, in feed, site: liver, lesion: hepatocellular adenoma, dosed 97 weeks, study length 105 weeks): 307 mg/kg/day
- TD50 (rat, strain Charles River CD (Sprague-Dawley), females, in feed, site: liver, lesion: hepatocellular carcinoma, dosed 97 weeks, study length 105 weeks): 646 mg/kg/day
- TD50 (rat, strain Charles River CD (Sprague-Dawley), females, in feed, site: mammary gland, lesion: adenoma, dosed 97 weeks, study length 105 weeks): 3010 mg/kg/day
- TD50 (rat, strain Charles River CD (Sprague-Dawley), females, in feed, site: mammary gland, lesion: carcinoma, dosed 97 weeks, study length 105 weeks): 669 mg/kg/day
- TD50 (rat, strain Charles River CD (Sprague-Dawley), females, in feed, site: thyroid gland, lesion: adenoma, dosed 97 weeks, study length 105 weeks): 9710 mg/kg/day
- TD50 (rat, strain Charles River CD (Sprague-Dawley), males, in feed, site: liver, lesion: hepatocellular adenoma, dosed 97 weeks, study length 105 weeks): 2530 mg/kg/day
- TD50 (rat, strain Charles River CD (Sprague-Dawley), males, in feed, site: liver, lesion: hepatocellular carcinoma, dosed 97 weeks, study length 105 weeks): 4160 mg/kg/day
- TD50 (rat, strain Charles River CD (Sprague-Dawley), males, in feed, site: thyroid gland, lesion: adenoma, dosed 97 weeks, study length 105 weeks): 11000 mg/kg/day
- TD50 (rat, strain Charles River CD (Sprague-Dawley), males, in feed, site: thyroid gland, lesion: carcinoma, dosed 97 weeks, study length 105 weeks): 12400 mg/kg/day

SMILES: NNc1nc(-c2ccc([N+](=O)[O-])cc2)cs1
- TD50 (mouse, strain Swiss, females, in feed, site: all sites, lesion: lymphocytic leukemia, dosed 46 weeks, study length 66 weeks): 10.6 mg/kg/day
- TD50 (mouse, strain Swiss, females, in feed, site: any site (literature study), lesion: several types, types named in the paper, dosed 46 weeks, study length 66 weeks): 8.33 mg/kg/day
- TD50 (mouse, strain Swiss, females, in feed, site: lung, lesion: alveolar-cell carcinoma, dosed 46 weeks, study length 66 weeks): 25 mg/kg/day
- TD50 (rat, strain Sprague-Dawley, females, in feed, site: any site (literature study), lesion: several types, types named in the paper, dosed 46 weeks, study length 75 weeks): 0.743 mg/kg/day
- TD50 (rat, strain Sprague-Dawley, females, in feed, site: forestomach, lesion: squamous-cell papilloma, dosed 46 weeks, study length 75 weeks): 9 mg/kg/day
- TD50 (rat, strain Sprague-Dawley, females, in feed, site: mammary gland, lesion: adenocarcinoma, dosed 45 weeks, study length 52 weeks): 9.51 mg/kg/day
- TD50 (rat, strain Sprague-Dawley, females, in feed, site: mammary gland, lesion: adenocarcinoma, dosed 46 weeks, study length 75 weeks): 3.78 mg/kg/day
- TD50 (rat, strain Sprague-Dawley, females, in feed, site: mammary gland, lesion: several types, types named in the paper, dosed 45 weeks, study length 52 weeks): 8.66 mg/kg/day
- TD50 (rat, strain Sprague-Dawley, females, in feed, site: mammary gland, lesion: several types, types named in the paper, dosed 46 weeks, study length 75 weeks): 1.97 mg/kg/day
- TD50 (rat, strain Sprague-Dawley, females, in feed, site: salivary gland, lesion: adenocarcinoma, dosed 45 weeks, study length 52 weeks): 21.7 mg/kg/day

SMILES: Cc1ccc(Cc2cnc(NCCSCc3ccc(CN(C)C)o3)[nH]c2=O)cn1
- carcinogen call (mouse, strain SK&F Swiss, females, by gavage, site: gastric mucosa, lesion: carcinoid tumor, malignant, dosed 91 weeks, study length 91 weeks): negative (inactive)
- carcinogen call (mouse, strain SK&F Swiss, males, by gavage, site: gastric mucosa, lesion: carcinoid tumor, malignant, dosed 91 weeks, study length 91 weeks): negative (inactive)
- TD50 (rat, strain SK&F Wistar, females, by gavage, site: gastric mucosa, lesion: carcinoid tumor, malignant, dosed 100 weeks, study length 100 weeks): 2990 mg/kg/day
- TD50 (rat, strain SK&F Wistar, males, by gavage, site: gastric mucosa, lesion: carcinoid tumor, malignant, dosed 100 weeks, study length 100 weeks): 3830 mg/kg/day

SMILES: Cc1ccc2c(-c3ccccc3)nc(=O)n(C(C)C)c2c1
- carcinogen call (mouse, strain Charles River CD1, females, in feed, site: liver, lesion: hemangioendothelial sarcoma, dosed 86 weeks, study length 86 weeks): negative (inactive)
- TD50 (mouse, strain Charles River CD1, females, in feed, site: liver, lesion: hemangioma, dosed 86 weeks, study length 86 weeks): 48700 mg/kg/day (inactive)
- carcinogen call (mouse, strain Charles River CD1, females, in feed, site: liver, lesion: hepatocellular carcinoma, dosed 86 weeks, study length 86 weeks): negative (inactive)
- carcinogen call (mouse, strain Charles River CD1, females, in feed, site: lung, lesion: alveolar/bronchiolar adenoma, dosed 86 weeks, study length 86 weeks): negative (inactive)
- carcinogen call (mouse, strain Charles River CD1, females, in feed, site: lung, lesion: alveolar/bronchiolar carcinoma, dosed 86 weeks, study length 86 weeks): negative (inactive)
- TD50 (mouse, strain Charles River CD1, males, in feed, site: liver, lesion: hemangioma, dosed 86 weeks, study length 86 weeks): 14000 mg/kg/day (inactive)
- TD50 (mouse, strain Charles River CD1, males, in feed, site: liver, lesion: hepatocellular carcinoma, dosed 86 weeks, study length 86 weeks): 4350 mg/kg/day (inactive)
- TD50 (mouse, strain Charles River CD1, males, in feed, site: lung, lesion: alveolar/bronchiolar adenoma, dosed 86 weeks, study length 86 weeks): 5450 mg/kg/day (inactive)
- carcinogen call (mouse, strain Charles River CD1, males, in feed, site: lung, lesion: alveolar/bronchiolar carcinoma, dosed 86 weeks, study length 86 weeks): negative (inactive)

SMILES: CC(=O)Oc1c(C)c(C)c2c(c1C)CCC(C)(CCCC(C)CCCC(C)CCCC(C)C)O2 (stereo not given)
- carcinogen call (rat, strain Charles River CD (Sprague-Dawley), females, in feed, site: any site (literature study), lesion: malignant tumor, dosed 104 weeks, study length 104 weeks): negative (inactive)
- carcinogen call (rat, strain Charles River CD (Sprague-Dawley), females, in feed, site: any site (literature study), lesion: several types, types named in the paper, dosed 104 weeks, study length 104 weeks): negative (inactive)
- carcinogen call (rat, strain Charles River CD (Sprague-Dawley), females, in feed, site: liver, lesion: one or several types, types not named, dosed 52 weeks, study length 52 weeks): negative (inactive)
- carcinogen call (rat, strain Charles River CD (Sprague-Dawley), females, in feed, site: liver, lesion: one or several types, types not named, dosed 104 weeks, study length 104 weeks): negative (inactive)
- TD50 (rat, strain Charles River CD (Sprague-Dawley), males, in feed, site: any site (literature study), lesion: malignant tumor, dosed 104 weeks, study length 104 weeks): 67800 mg/kg/day (inactive)
- TD50 (rat, strain Charles River CD (Sprague-Dawley), males, in feed, site: any site (literature study), lesion: several types, types named in the paper, dosed 104 weeks, study length 104 weeks): 67800 mg/kg/day (inactive)
- carcinogen call (rat, strain Charles River CD (Sprague-Dawley), males, in feed, site: liver, lesion: one or several types, types not named, dosed 52 weeks, study length 52 weeks): negative (inactive)
- carcinogen call (rat, strain Charles River CD (Sprague-Dawley), males, in feed, site: liver, lesion: one or several types, types not named, dosed 104 weeks, study length 104 weeks): negative (inactive)

SMILES: CC(=O)CN(CC(C)=O)N=O
- TD50 (rat, strain Fischer 344, females, by gavage, site: liver, lesion: hepatocellular carcinoma, dosed 30 weeks, study length 95 weeks): 0.684 mg/kg/day
- TD50 (rat, strain Fischer 344, females, in drinking water, site: liver, lesion: hemangiosarcoma, dosed 50 weeks, study length 75 weeks): 0.892 mg/kg/day
- TD50 (rat, strain Fischer 344, females, in drinking water, site: liver, lesion: hepatocellular carcinoma, dosed 50 weeks, study length 75 weeks): 0.582 mg/kg/day
- TD50 (rat, strain Fischer 344, females, in drinking water, site: liver, lesion: several types, types named in the paper, dosed 50 weeks, study length 75 weeks): 0.232 mg/kg/day
- TD50 (rat, strain Fischer 344, females, in drinking water, site: lung, lesion: several types, types named in the paper, dosed 50 weeks, study length 75 weeks): 0.399 mg/kg/day
- TD50 (rat, strain MRC-Wistar, males, by gavage, site: colorectum, lesion: one or several types, types not named, dosed 104 weeks, study length 104 weeks): 1.56 mg/kg/day
- TD50 (rat, strain MRC-Wistar, males, by gavage, site: liver, lesion: one or several types, types not named, dosed 104 weeks, study length 104 weeks): 1.56 mg/kg/day
- TD50 (rat, strain MRC-Wistar, males, by gavage, site: lung, lesion: one or several types, types not named, dosed 104 weeks, study length 104 weeks): 1.92 mg/kg/day
- TD50 (rat, strain MRC-Wistar, males, by gavage, site: nasal cavity, lesion: one or several types, types not named, dosed 104 weeks, study length 104 weeks): 1.56 mg/kg/day
- TD50 (rat, strain MRC-Wistar, males, by gavage, site: prostate, lesion: carcinoma, dosed 74 weeks, study length 74 weeks): 1.53 mg/kg/day
- TD50 (rat, strain MRC-Wistar, males, by gavage, site: prostate, lesion: squamous-cell carcinoma, keratinized, dosed 104 weeks, study length 104 weeks): 2.41 mg/kg/day
- TD50 (rat, strain MRC-Wistar, males, by gavage, site: thyroid gland, lesion: one or several types, types not named, dosed 104 weeks, study length 104 weeks): 3.16 mg/kg/day
- TD50 (rat, strain MRC-Wistar, males, by gavage, site: urethra, lesion: several types, types named in the paper, dosed 104 weeks, study length 104 weeks): 0.891 mg/kg/day
- TD50 (rat, strain MRC, females, by gavage, site: any site (literature study), lesion: one or several types, types not named, dosed 73 weeks, study length 77 weeks): 0.171 mg/kg/day
- TD50 (rat, strain MRC, females, by gavage, site: liver, lesion: several types, types named in the paper, dosed 73 weeks, study length 77 weeks): 0.283 mg/kg/day
- TD50 (rat, strain MRC, females, by gavage, site: lung, lesion: adenoma, dosed 73 weeks, study length 77 weeks): 14 mg/kg/day
- TD50 (rat, strain MRC, females, by gavage, site: nasal and paranasal cavity, lesion: several types, types named in the paper, dosed 73 weeks, study length 77 weeks): 14 mg/kg/day
- TD50 (rat, strain MRC, females, by gavage, site: thyroid gland, lesion: several types, types named in the paper, dosed 73 weeks, study length 77 weeks): 1.39 mg/kg/day
- TD50 (rat, strain MRC, males, by gavage, site: any site (literature study), lesion: one or several types, types not named, dosed 72 weeks, study length 80 weeks): 0.0995 mg/kg/day
- TD50 (rat, strain MRC, males, by gavage, site: colon, lesion: several types, types named in the paper, dosed 72 weeks, study length 80 weeks): 1.6 mg/kg/day
- TD50 (rat, strain MRC, males, by gavage, site: liver, lesion: several types, types named in the paper, dosed 72 weeks, study length 80 weeks): 0.989 mg/kg/day
- TD50 (rat, strain MRC, males, by gavage, site: lung, lesion: several types, types named in the paper, dosed 72 weeks, study length 80 weeks): 1.1 mg/kg/day
- TD50 (rat, strain MRC, males, by gavage, site: nasal and paranasal cavity, lesion: several types, types named in the paper, dosed 72 weeks, study length 80 weeks): 1.23 mg/kg/day
- TD50 (rat, strain MRC, males, by gavage, site: prostate, lesion: squamous-cell carcinoma, dosed 72 weeks, study length 80 weeks): 2.21 mg/kg/day
- TD50 (rat, strain MRC, males, by gavage, site: thyroid gland, lesion: several types, types named in the paper, dosed 72 weeks, study length 80 weeks): 0.968 mg/kg/day
- TD50 (rat, strain MRC, males, by gavage, site: urethra, lesion: papilloma, dosed 72 weeks, study length 80 weeks): 0.878 mg/kg/day

SMILES: C=CCN(N=O)C(N)=O
- TD50 (rat, strain Fischer 344, females, by gavage, site: forestomach, lesion: one or several types, types not named, dosed 30 weeks, study length 104 weeks): 0.476 mg/kg/day
- TD50 (rat, strain Fischer 344, females, by gavage, site: mammary gland, lesion: adenocarcinoma, dosed 30 weeks, study length 104 weeks): 0.601 mg/kg/day
- TD50 (rat, strain Fischer 344, females, by gavage, site: uterus, lesion: several types, types named in the paper, dosed 30 weeks, study length 104 weeks): 1.87 mg/kg/day
- TD50 (rat, strain Fischer 344, males, by gavage, site: Zymbal's gland, lesion: one or several types, types not named, dosed 30 weeks, study length 104 weeks): 0.541 mg/kg/day
- TD50 (rat, strain Fischer 344, males, by gavage, site: colon, lesion: one or several types, types not named, dosed 30 weeks, study length 104 weeks): 0.541 mg/kg/day
- TD50 (rat, strain Fischer 344, males, by gavage, site: forestomach, lesion: one or several types, types not named, dosed 30 weeks, study length 104 weeks): 0.266 mg/kg/day
- TD50 (rat, strain Fischer 344, males, by gavage, site: lung, lesion: several types, types named in the paper, dosed 30 weeks, study length 104 weeks): 0.421 mg/kg/day

SMILES: NCCNc1cccc2ccccc12
- carcinogen call (mouse, strain B6C3F1, females, in feed, site: any site (literature study), lesion: several types, types named in the paper, dosed 104 weeks, study length 106 weeks): negative (inactive)
- TD50 (mouse, strain B6C3F1, females, in feed, site: liver, lesion: hepatocellular adenoma + hepatocellular carcinoma + neoplastic nodule, dosed 104 weeks, study length 106 weeks): 25600 mg/kg/day
- TD50 (mouse, strain B6C3F1, females, in feed, site: lung, lesion: alveolar/bronchiolar adenoma + alveolar/bronchiolar carcinoma, dosed 104 weeks, study length 106 weeks): 4390 mg/kg/day
- carcinogen call (mouse, strain B6C3F1, males, in feed, site: any site (literature study), lesion: several types, types named in the paper, dosed 104 weeks, study length 104 weeks): negative (inactive)
- TD50 (rat, strain Fischer 344, females, in feed, site: liver, lesion: hepatocellular adenoma + hepatocellular carcinoma + neoplastic nodule, dosed 104 weeks, study length 107 weeks): 93.5 mg/kg/day
- TD50 (rat, strain Fischer 344, females, in feed, site: liver, lesion: hepatocellular carcinoma + neoplastic nodule, dosed 104 weeks, study length 107 weeks): 93.5 mg/kg/day (inactive)
- TD50 (rat, strain Fischer 344, males, in feed, site: any site (literature study), lesion: several types, types named in the paper, dosed 104 weeks, study length 107 weeks): 41.6 mg/kg/day (inactive)

Reference: PubChem BioAssay AID1745844 (Carcinogenic Potency Database (CPDB), 2022)
